The results in this text go back to ChEMBL document CHEMBL3596121, “Naphthalene and 2,3-dihydrobenzo[b][1,4]dioxine derivatives with extended side chains as new scaffolds of CB2-selective ligands” (Medchemcomm, 2014).

For assay [1], the target named is T1, Cannabinoid receptor 2 (Homo sapiens, UniProt P34972). The experiment in a line: Displacement of human recombinant CB2 receptor expressed in HEK293 cell membranes incubated for 90 mins by Cheng-Prusoff equation based analysis.
Assay [2] addresses T2, Cannabinoid receptor 1 (Homo sapiens, UniProt P21554). Nature of the assay: Displacement of human recombinant CB1 receptor expressed in HEK293 cell membranes incubated for 90 mins by Cheng-Prusoff equation based analysis.
Assay [3] concerns the target T1, Cannabinoid receptor 2. Nature of the assay: Displacement of human recombinant CB2 receptor expressed in HEK293 cell membranes incubated for 90 mins by radioligand binding assay. It counts as cell-based.
Assay [4] deals with T1, Cannabinoid receptor 2. To be noted: HEK293, at 10 µM.
Description: Maximum displacement of human recombinant CB2 receptor expressed in HEK293 cell membranes at 10 uM incubated for 90 mins by radioligand binding assay
The target in assay [5] is T2, Cannabinoid receptor 1. To be noted: HEK293, at 10 µM.
Description: Maximum displacement of human recombinant CB1 receptor expressed in HEK293 cell membranes at 10 uM incubated for 90 mins by radioligand binding assay
In assay [6] the target is T2, Cannabinoid receptor 1. The experiment in a line: Displacement of human recombinant CB1 receptor expressed in HEK293 cell membranes incubated for 90 mins by radioligand binding assay. Type of assay: cell-based.
The next assay deals with HEK293. Nature of the assay: Selectivity index, ratio of Ki for human recombinant CB1 receptor expressed in HEK293 cell membranes to Ki for human recombinant CB2 receptor expressed in HEK293 cell membranes. It counts as cell-based.

Each structure is given as a SMILES string. A value given as a limit tells only on which side of the number the result lay.

T2 sequence (P21554 whole entry): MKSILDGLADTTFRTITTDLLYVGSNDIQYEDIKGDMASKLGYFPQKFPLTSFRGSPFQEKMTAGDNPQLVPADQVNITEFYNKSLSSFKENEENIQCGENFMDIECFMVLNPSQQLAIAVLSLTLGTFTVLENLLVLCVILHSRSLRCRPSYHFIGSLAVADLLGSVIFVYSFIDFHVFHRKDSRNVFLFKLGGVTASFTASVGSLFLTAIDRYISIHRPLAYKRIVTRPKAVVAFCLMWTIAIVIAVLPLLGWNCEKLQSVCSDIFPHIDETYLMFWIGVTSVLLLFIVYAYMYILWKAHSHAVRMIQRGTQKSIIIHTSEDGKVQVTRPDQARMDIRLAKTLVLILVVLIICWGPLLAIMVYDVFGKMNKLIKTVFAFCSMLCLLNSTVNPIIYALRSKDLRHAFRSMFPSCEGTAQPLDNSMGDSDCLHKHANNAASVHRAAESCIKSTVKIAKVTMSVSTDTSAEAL
T1 sequence (P34972 whole entry): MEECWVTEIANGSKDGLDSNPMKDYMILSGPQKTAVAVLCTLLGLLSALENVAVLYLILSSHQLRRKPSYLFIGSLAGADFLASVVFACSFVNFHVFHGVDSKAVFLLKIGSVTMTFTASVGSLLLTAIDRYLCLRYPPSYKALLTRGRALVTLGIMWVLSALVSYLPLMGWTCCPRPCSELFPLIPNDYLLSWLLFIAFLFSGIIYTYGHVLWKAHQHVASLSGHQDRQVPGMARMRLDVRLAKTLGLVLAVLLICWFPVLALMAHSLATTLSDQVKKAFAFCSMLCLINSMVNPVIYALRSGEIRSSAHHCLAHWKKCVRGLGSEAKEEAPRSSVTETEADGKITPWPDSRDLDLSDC

Take `NC(=O)NCCCCCOc1ccc2c(c1)OCO2`: the inhibition constant Ki at Cannabinoid receptor 2 [1] and at Cannabinoid receptor 1 [2] was over 10 µM in each case. Besides, the 50% inhibitory concentration (IC50) at Cannabinoid receptor 2 [3] and at Cannabinoid receptor 1 [6] was over 10 µM each time. Besides, the Imax on Cannabinoid receptor 2 [4] came out at 22.1%; at Cannabinoid receptor 1 [5] it was 2.39%.

Regarding `CCCC(C)(C)c1ccc2c(c1)OC(C)(C)[C@@H]1CC=C(C)C[C@@H]21`, the Ki is 0.14 µM at Cannabinoid receptor 2 [1] and over 10 µM at Cannabinoid receptor 1 [2]. For the same compound, the IC50 was 0.55 µM on Cannabinoid receptor 2 [3] and over 10 µM on Cannabinoid receptor 1 [6]. Also, the Imax on Cannabinoid receptor 2 [4] is 50%; at Cannabinoid receptor 1 [5], under 50%. Also, the Ratio Ki in the assay on HEK293 is over 71.4.

Take `CCOC(=O)CNC(=O)/C=C/C=C/c1ccc2ccccc2c1`: the inhibition constant Ki on Cannabinoid receptor 2 [1] and at Cannabinoid receptor 1 [2] was over 10 µM throughout. Moreover, the IC50 on Cannabinoid receptor 2 [3] and at Cannabinoid receptor 1 [6] was over 10 µM each time. Also, the Imax was 48.5% at Cannabinoid receptor 2 [4] and 2.24% at Cannabinoid receptor 1 [5].

Consider `CCS(=O)(=O)NCCCCCOc1ccc2c(c1)OCO2`, for which the inhibitory constant (Ki) on Cannabinoid receptor 2 [1] and at Cannabinoid receptor 1 [2] was over 10 µM in each case. In addition, the IC50 on Cannabinoid receptor 2 [3] and at Cannabinoid receptor 1 [6] was over 10 µM each time. The Imax was 29.5% on Cannabinoid receptor 2 [4] and 3.37% on Cannabinoid receptor 1 [5].

Regarding `O=C(/C=C/C=C/c1ccc2c(c1)OCCO2)NC1CC1`, the Ki at Cannabinoid receptor 2 [1] and at Cannabinoid receptor 1 [2] was over 10 µM in each case. Moreover, the concentration for half-maximal inhibition (IC50) on Cannabinoid receptor 2 [3] and on Cannabinoid receptor 1 [6] was over 10 µM in each case. In addition, the results for the Imax at Cannabinoid receptor 2 [4] and on Cannabinoid receptor 1 [5] were 26.5% and 6.18%, respectively.

As for `O=C(/C=C/C=C/c1ccc2c(c1)-c1ccccc1C2)NC1CC1`, the Ki on Cannabinoid receptor 2 [1] and at Cannabinoid receptor 1 [2] was over 10 µM throughout. Also, the IC50 on Cannabinoid receptor 2 [3] and on Cannabinoid receptor 1 [6] was over 10 µM in each case. For the same compound, the Imax came to 36.1% at Cannabinoid receptor 2 [4] and 13.6% on Cannabinoid receptor 1 [5].

For the compound `O=C(CCCCCOc1ccc2ccccc2c1)NCCO`, the inhibition constant (Ki) on Cannabinoid receptor 2 [1] and on Cannabinoid receptor 1 [2] was over 10 µM each time. Further, the half-inhibitory concentration (IC50) at Cannabinoid receptor 2 [3] and at Cannabinoid receptor 1 [6] was over 10 µM each time. The Imax came to 3.6% at Cannabinoid receptor 2 [4] and 3.65% at Cannabinoid receptor 1 [5].

Consider `CCOC(=O)CNC(=O)CCCCCOc1ccc2ccccc2c1`, for which the inhibition constant Ki on Cannabinoid receptor 2 [1] and at Cannabinoid receptor 1 [2] was over 10 µM throughout. In addition, the IC50 on Cannabinoid receptor 2 [3] and on Cannabinoid receptor 1 [6] was over 10 µM each time. For the same compound, the Imax on Cannabinoid receptor 2 [4] stood at 25.5%; on Cannabinoid receptor 1 [5], 6.46%.

As for `O=C(/C=C/C=C/c1ccc2ccccc2c1)NC1CC1`, the inhibition constant (Ki) is 0.81 µM at Cannabinoid receptor 2 [1] and over 10 µM on Cannabinoid receptor 1 [2]. Moreover, the half-inhibitory concentration (IC50) on Cannabinoid receptor 2 [3] was 3.02 µM; at Cannabinoid receptor 1 [6], over 10 µM. For the same compound, the Imax was 58.5% at Cannabinoid receptor 2 [4] and 18.5% on Cannabinoid receptor 1 [5]. For the same compound, the Ratio Ki in the assay with HEK293 was over 12.2.

Turning to `O=C(CCCCCOc1cccc2ccccc12)NC1CC1`, the Ki on Cannabinoid receptor 2 [1] and at Cannabinoid receptor 1 [2] was over 10 µM throughout. Further, the half-maximal inhibitory concentration (IC50) at Cannabinoid receptor 2 [3] and at Cannabinoid receptor 1 [6] was over 10 µM each time. For the same compound, the Imax amounted to 27.8% on Cannabinoid receptor 2 [4] and 24.7% at Cannabinoid receptor 1 [5].

`O=C(CCCCCOc1cccc2ccccc12)NCCO`: the inhibition constant Ki at Cannabinoid receptor 2 [1] and on Cannabinoid receptor 1 [2] was over 10 µM in each case. In addition, the 50% inhibitory concentration (IC50) on Cannabinoid receptor 2 [3] and at Cannabinoid receptor 1 [6] was over 10 µM in each case. The Imax at Cannabinoid receptor 2 [4] was 14.8%; on Cannabinoid receptor 1 [5] it was 27%.

`CCS(=O)(=O)NCCCCCSc1ccc2ccccc2c1`: the inhibition constant Ki at Cannabinoid receptor 2 [1] is 1.32 µM; on Cannabinoid receptor 1 [2], over 10 µM. For the same compound, the IC50 at Cannabinoid receptor 2 [3] is 5.02 µM; at Cannabinoid receptor 1 [6], over 10 µM. For the same compound, the Imax at Cannabinoid receptor 2 [4] is 63.3%; at Cannabinoid receptor 1 [5] it was 23.6%. In the assay with HEK293, the Ratio Ki was over 7.58.

For `O=C(CCCCCOc1ccc2ccccc2c1)NC1CC1`, the Ki on Cannabinoid receptor 2 [1] and on Cannabinoid receptor 1 [2] was over 10 µM in each case. Also, the concentration for half-maximal inhibition (IC50) on Cannabinoid receptor 2 [3] and on Cannabinoid receptor 1 [6] was over 10 µM in each case. In addition, the Imax on Cannabinoid receptor 2 [4] was determined as 31.4%; at Cannabinoid receptor 1 [5], 44.8%.

Turning to `CCNC(=O)NCCCCCSc1ccc2ccccc2c1`, the Ki at Cannabinoid receptor 2 [1] is 0.56 µM; at Cannabinoid receptor 1 [2], over 10 µM. Further, the IC50 was 2.11 µM at Cannabinoid receptor 2 [3] and over 10 µM on Cannabinoid receptor 1 [6]. Besides, the Imax amounted to 68.2% at Cannabinoid receptor 2 [4] and 16.9% on Cannabinoid receptor 1 [5]. The Ratio Ki with HEK293 was over 17.9. Further, in the assay on HEK293, the log(ratioKi) was determined as 1.3.

Regarding `O=C(/C=C/C=C/c1ccc2c(c1)-c1ccccc1C2)NCCO`, the Ki on Cannabinoid receptor 2 [1] and at Cannabinoid receptor 1 [2] was over 10 µM each time. Also, the half-inhibitory concentration (IC50) on Cannabinoid receptor 2 [3] and at Cannabinoid receptor 1 [6] was over 10 µM in each case. Besides, the Imax was found to be 24.2% at Cannabinoid receptor 2 [4] and 0% on Cannabinoid receptor 1 [5].

On to `CCS(=O)(=O)NCCCCCOc1ccc2ccccc2c1`, for which the Ki on Cannabinoid receptor 2 [1] and on Cannabinoid receptor 1 [2] was over 10 µM each time. Also, the 50% inhibitory concentration (IC50) on Cannabinoid receptor 2 [3] and at Cannabinoid receptor 1 [6] was over 10 µM each time. In addition, the figures for the Imax at Cannabinoid receptor 2 [4] and on Cannabinoid receptor 1 [5] were 23.7% and 11.9%, respectively.

As to `CCOC(=O)CNC(=O)CCCCCOc1cccc2ccccc12`, the Ki at Cannabinoid receptor 2 [1] and on Cannabinoid receptor 1 [2] was over 10 µM each time. For the same compound, the IC50 at Cannabinoid receptor 2 [3] and at Cannabinoid receptor 1 [6] was over 10 µM throughout. For the same compound, the values for the Imax at Cannabinoid receptor 2 [4] and at Cannabinoid receptor 1 [5] were 0% and 27.7%, respectively.

In the case of `CCS(=O)(=O)NCCCCCOc1cccc2ccccc12`, the inhibitory constant (Ki) at Cannabinoid receptor 2 [1] and on Cannabinoid receptor 1 [2] was over 10 µM throughout. Besides, the IC50 at Cannabinoid receptor 2 [3] and on Cannabinoid receptor 1 [6] was over 10 µM each time. Moreover, the Imax on Cannabinoid receptor 2 [4] was 30.9%; at Cannabinoid receptor 1 [5], 7.86%.

Take `CCOC(=O)CNC(=O)/C=C/C=C/c1ccc2c(c1)-c1ccccc1C2`: the inhibition constant Ki at Cannabinoid receptor 2 [1] and at Cannabinoid receptor 1 [2] was over 10 µM each time. The IC50 at Cannabinoid receptor 2 [3] and at Cannabinoid receptor 1 [6] was over 10 µM each time. The values for the Imax at Cannabinoid receptor 2 [4] and on Cannabinoid receptor 1 [5] were 39.1% and 5.47%, respectively.

Turning to `CCNC(=O)NCCCCCOc1ccc2ccccc2c1`, the Ki at Cannabinoid receptor 2 [1] and on Cannabinoid receptor 1 [2] was over 10 µM in each case. Further, the IC50 at Cannabinoid receptor 2 [3] and at Cannabinoid receptor 1 [6] was over 10 µM in each case. For the same compound, the Imax on Cannabinoid receptor 2 [4] amounted to 27.1%; at Cannabinoid receptor 1 [5], 9.27%.

Take `O=C(/C=C/C=C/c1ccc2ccccc2c1)NCCO`: the Ki on Cannabinoid receptor 2 [1] was 1.27 µM; on Cannabinoid receptor 1 [2], over 10 µM. Further, the results for the half-inhibitory concentration (IC50) on Cannabinoid receptor 2 [3] and at Cannabinoid receptor 1 [6] were 4.81 µM and over 10 µM, respectively. The Imax on Cannabinoid receptor 2 [4] turned out to be 54.6%; on Cannabinoid receptor 1 [5], 4.91%. Further, the Ratio Ki with HEK293 is over 7.87.

Consider `CCOC(=O)CNC(=O)/C=C/C=C/c1ccc2c(c1)OCCO2`, for which the Ki at Cannabinoid receptor 2 [1] was 2.56 µM; on Cannabinoid receptor 1 [2], over 10 µM. For the same compound, the IC50 is 9.69 µM on Cannabinoid receptor 2 [3] and over 10 µM at Cannabinoid receptor 1 [6]. For the same compound, the Imax on Cannabinoid receptor 2 [4] was found to be 55.1%; at Cannabinoid receptor 1 [5] it was 4.77%. The Ratio Ki in the assay with HEK293 is over 3.9.

Regarding `CCNC(=O)NCCCCCOc1ccc2c(c1)OCO2`, the inhibition constant (Ki) on Cannabinoid receptor 2 [1] and at Cannabinoid receptor 1 [2] was over 10 µM each time. Besides, the half-inhibitory concentration (IC50) on Cannabinoid receptor 2 [3] and at Cannabinoid receptor 1 [6] was over 10 µM throughout. Also, the Imax on Cannabinoid receptor 2 [4] came to 22.6%; at Cannabinoid receptor 1 [5], 3.38%.

Take `CC1(Cc2ccccc2)COc2cc(C(=O)N3CCCCC3)ccc21` (centres undefined): on Cannabinoid receptor 1 [2], the inhibitory constant (Ki) is over 10 µM. In addition, the log(ratioKi) with HEK293 stood at 1.37.

As for `CCNC(=O)NCCCCCOc1cccc2ccccc12`, the Ki at Cannabinoid receptor 2 [1] and at Cannabinoid receptor 1 [2] was over 10 µM each time. Further, the IC50 on Cannabinoid receptor 2 [3] and on Cannabinoid receptor 1 [6] was over 10 µM in each case. The Imax at Cannabinoid receptor 2 [4] amounted to 23.8%; on Cannabinoid receptor 1 [5], 18.5%.

With `NC(=O)NCCCCCOc1cccc2ccccc12`, the Ki at Cannabinoid receptor 2 [1] and at Cannabinoid receptor 1 [2] was over 10 µM throughout. In addition, the 50% inhibitory concentration (IC50) at Cannabinoid receptor 2 [3] and on Cannabinoid receptor 1 [6] was over 10 µM in each case. Also, the Imax at Cannabinoid receptor 2 [4] was 4.6%; at Cannabinoid receptor 1 [5], 6.88%.
